One assay deals with Gram-positive bacteria. Nature of the assay: Hydrolysis on Columbia agar with ferric ammonium citrate, strain panel. The class given is cell-based. As to conditions: Gram-positive bacteria tested. How it is done:
(§1) The ribofuranoside derivative of dihydroxyflavone was tested with 194 distinct strains of bacteria. The choice of bacteria included a wide range many of which are important pathogens or commensals commonly isolated from pathological samples.
(§2) The chromogenic β-D-ribofuranoside substrate was added to Columbia agar at a substrate concentration of 300 mg/l. Ferric ammonium citrate was included at 500 mg/l. All ingredients were autoclaved at 116° C. for 20 minutes to ensure sterilisation. Agar plates were then prepared in 90 mm petri dishes. The substrate caused a yellow colouration of the agar.
(§3) For each strain tested, a bacterial suspension was prepared in sterile deionised water at an inoculum of approximately 1.5×10^8 colony forming units per ml. This was achieved using a densitometer. 1 μl of each bacterial suspension was then inoculated onto each plate using a multipoint inoculator. Strains were inoculated in parallel onto Columbia agar containing ferric ammonium citrate with no substrate (negative control).
(§4) After 18 hours incubation, strains were examined visually for the presence of colour. Any strains producing a black colouration on substrate containing media but not on the negative control plates were deemed to be hydrolysing the substrate.

The subject of a further assay is Gram negative bacteria. The description is as above. The class given is cell-based. The note with it: 120 Gram negative bacteria tested. As to the method:
as §1, §2, §3, §4

Where a name gives a salt, the structure may show the parent alone.

Here are results for 1 compound from patent US7709223B2, “Method for detecting bacteria with chromogenic substrates for β-D-ribofuranosidase” (priority 2001, dated 2010).

Consider `O=c1cc(-c2ccc(OC3OC(CO)C(O)C3O)c(O)c2)oc2ccccc12` [DHF-riboside, 3′,4′-Dihydroxyflavone-4′-β-D-ribofuranoside sodium salt], for which, in the assay with Gram-positive bacteria, the “Share of strains active with the substrate” value was found to be 30.8%. The “Share of strains that hydrolysed the substrate” value with Gram negative bacteria was found to be 68.3%.
